Patent US20240366598A1, “GLUCOSE-DEPENDENT INSULINOTROPIC POLYPEPTIDE RECEPTOR ANTAGONISTS AND USES THEREOF” (Pfizer Inc., priority 2023, published 2024)

Biological target: T1, human Glucose-dependent Insulinotropic Polypeptide Receptor (hGIPR) (Homo sapiens, UniProt P48546)
T1 sequence (P48546 22-466): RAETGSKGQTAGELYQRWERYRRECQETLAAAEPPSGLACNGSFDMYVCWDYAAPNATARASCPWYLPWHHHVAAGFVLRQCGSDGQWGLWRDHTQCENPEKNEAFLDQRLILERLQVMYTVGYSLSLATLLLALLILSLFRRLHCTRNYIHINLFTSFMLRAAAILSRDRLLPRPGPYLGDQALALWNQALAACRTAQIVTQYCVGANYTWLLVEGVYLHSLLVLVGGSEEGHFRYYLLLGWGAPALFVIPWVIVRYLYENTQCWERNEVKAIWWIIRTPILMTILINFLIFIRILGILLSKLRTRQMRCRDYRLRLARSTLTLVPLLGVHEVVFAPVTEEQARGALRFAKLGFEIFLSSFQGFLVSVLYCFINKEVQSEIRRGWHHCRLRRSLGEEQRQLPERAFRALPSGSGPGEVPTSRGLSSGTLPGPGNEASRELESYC
Assay: Functional in vitro GIPR antagonist potency assay (cAMP HTRF, CHO-K1 cells stably expressing hGIPR, hGIP stimulation at about EC80)
Format: cell-based
Conditions: geometric mean, hGIP at estimated EC80, examples marked ^2: overall geometric mean of multiple forms (including salts) tested
How it was run: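 HTRF quantification of cAMP after stimulation with hGIP at an estimated EC80 for 30 min at 37 °C. Before stimulation, hGIPR-expressing CHO-K1 cells were exposed 2 h to test compound in IBMX-containing buffer, with 0.5% DMSO final. Percent effect is referenced to agonist alone (0%) and to 80 μM of a reference antagonist (100%), and runs required the agonist concentration to fall within the on-the-day EC50–EC90.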

Row | SMILES | IC50 [nM]
1 | CC(C)c1ccc(NC(=O)N2CCC[C@@H]2C(=O)Nc2ccc(-c3cccc(C(=O)O)n3)c(F)c2)cc1 [Example 75, 6-{2-fluoro-4-[(1-{[4-(propan-2-yl)phenyl]carbamoyl}-D-prolyl)amino]phenyl}pyridine-2-carboxylic acid] | 140
2 | Cc1cc(NC(=O)[C@H]2CCCN2C(=O)Nc2ccc(C(C)C)cc2)ccc1-c1ccc(C(=O)O)cc1 [Example 76, 2′-methyl-4′-[(1-{[4-(propan-2-yl)phenyl]carbamoyl}-D-prolyl)amino][1,1′-biphenyl]-4-carboxylic acid] | 9.9
3 | CC(C)c1ccc(NC(=O)N2CCC[C@@H]2C(=O)Nc2ccc(-c3cccc(C(=O)O)c3)cn2)cc1 [Example 77, 3-{6-[(1-{[4-(propan-2-yl)phenyl]carbamoyl}-D-prolyl)amino]pyridin-3-yl}benzoic acid] | 16
4 | CC(C)c1ccc(NC(=O)N2CCC[C@@H]2C(=O)Nc2ccc(-c3cccc(C(=O)O)c3)nc2)cc1 [Example 78, 3-{5-[(1-{[4-(propan-2-yl)phenyl]carbamoyl}-D-prolyl)amino]pyridin-2-yl}benzoic acid] | 145
5 | Cc1cc(C(=O)O)cc(Cl)c1-c1ccc(NC(=O)[C@H]2CCCN2C(=O)Nc2ccc(C(C)C)cc2)cc1 [Example 90, 2-chloro-6-methyl-4′-[(1-{[4-(propan-2-yl)phenyl]carbamoyl}-D-prolyl)amino][1,1′-biphenyl]-4-carboxylic acid] | 45
6 | CC(C)c1ccc(NC(=O)N2CCC[C@@H]2C(=O)Nc2ccc(-c3ccc(C(N)=O)cc3)cc2)cc1 [Example 91, (2R)-N^2-(4′-carbamoyl[1,1′-biphenyl]-4-yl)-N^1-[4-(propan-2-yl)phenyl]pyrrolidine-1,2-dicarboxamide] | 39
7 | COc1cc(C(=O)O)cc(C)c1-c1ccc(NC(=O)[C@H]2CCCN2C(=O)Nc2ccc(C(C)C)cc2)cc1 [Example 92, 2-methoxy-6-methyl-4′-[(1-{[4-(propan-2-yl)phenyl]carbamoyl}-D-prolyl)amino][1,1′-biphenyl]-4-carboxylic acid] | 87
8 | COc1ccc(-c2ccc(NC(=O)[C@H]3CCCN3C(=O)Nc3ccc(C(C)C)cc3)cc2)cc1C(=O)O [Example 93, 4-methoxy-4′-[(1-{[4-(propan-2-yl)phenyl]carbamoyl}-D-prolyl)amino][1,1′-biphenyl]-3-carboxylic acid] | 79
9 | CCc1cc(-c2ccc(NC(=O)[C@H]3CCCN3C(=O)Nc3ccc(C(C)C)cc3)cc2)ccc1C(=O)O [Example 95, 3-ethyl-4′-[(1-{[4-(propan-2-yl)phenyl]carbamoyl}-D-prolyl)amino][1,1′-biphenyl]-4-carboxylic acid] | 13
10 | CC(C)c1ccc(NC(=O)N2CCC[C@@H]2C(=O)Nc2ccc(-c3ccc(O)c(Cl)c3)cc2)cc1 [Example 96, (2R)-N^2-(3′-chloro-4′-hydroxy[1,1′-biphenyl]-4-yl)-N^1-[4-(propan-2-yl)phenyl]pyrrolidine-1,2-dicarboxamide] | 180
11 | Cc1cc(O)ccc1-c1ccc(NC(=O)[C@H]2CCCN2C(=O)Nc2ccc(C(C)C)cc2)cc1 [Example 97, (2R)-N^2-(4′-hydroxy-2′-methyl[1,1′-biphenyl]-4-yl)-N^1-[4-(propan-2-yl)phenyl]pyrrolidine-1,2-dicarboxamide] | 230

Next, values leading:

Row | IC50 [nM] | SMILES
12 | 15 | CC(C)c1ccc(NC(=O)N2CCC[C@@H]2C(=O)Nc2ccc(-c3ccc(C(=O)O)cc3Cl)cc2)cc1 [Example 79, 2-chloro-4′-[(1-{[4-(propan-2-yl)phenyl]carbamoyl}-D-prolyl)amino][1,1′-biphenyl]-4-carboxylic acid]
13 | 400 | CC(C)c1ccc(NC(=O)N2CCC[C@@H]2C(=O)Nc2ccc(-c3c(F)ccc(C(=O)O)c3F)cc2)cc1 [Example 80, 2,6-difluoro-4′-[(1-{[4-(propan-2-yl)phenyl]carbamoyl}-D-prolyl)amino][1,1′-biphenyl]-3-carboxylic acid]
14 | 210 | COc1cc(C(=O)O)c(F)cc1-c1ccc(NC(=O)[C@H]2CCCN2C(=O)Nc2ccc(C(C)C)cc2)cc1 [Example 81, 5-fluoro-2-methoxy-4′-[(1-{[4-(propan-2-yl)phenyl]carbamoyl}-D-prolyl)amino][1,1′-biphenyl]-4-carboxylic acid]
15 | 27 | CC(C)c1ccc(NC(=O)N2CCC[C@@H]2C(=O)Nc2ccc(-c3cc(F)c(C(=O)O)cc3F)cc2)cc1 [Example 82, 2,5-difluoro-4′-[(1-{[4-(propan-2-yl)phenyl]carbamoyl}-D-prolyl)amino][1,1′-biphenyl]-4-carboxylic acid]
16 | 230 | CC(C)c1ccc(NC(=O)N2CCC[C@@H]2C(=O)Nc2ccc(-c3cc(F)c(C(=O)O)c(Cl)c3)cc2)cc1 [Example 83, 3-chloro-5-fluoro-4′-[(1-{[4-(propan-2-yl)phenyl]carbamoyl}-D-prolyl)amino][1,1′-biphenyl]-4-carboxylic acid]
17 | 19 | Cc1cc(C(=O)O)c(F)cc1-c1ccc(NC(=O)[C@H]2CCCN2C(=O)Nc2ccc(C(C)C)cc2)cc1 [Example 84, 5-fluoro-2-methyl-4′-[(1-{[4-(propan-2-yl)phenyl]carbamoyl}-D-prolyl)amino][1,1′-biphenyl]-4-carboxylic acid]
18 | 260 | CC(C)c1ccc(NC(=O)N2CCC[C@@H]2C(=O)Nc2ccc(-c3cc(F)cc(C(=O)O)c3)cc2)cc1 [Example 85, 5-fluoro-4′-[(1-{[4-(propan-2-yl)phenyl]carbamoyl}-D-prolyl)amino][1,1′-biphenyl]-3-carboxylic acid]
19 | 7.5 | Cc1cc(-c2ccc(NC(=O)[C@H]3CCCN3C(=O)Nc3ccc(C(C)C)cc3)cc2)c(F)cc1C(=O)O [Example 86, 2-fluoro-5-methyl-4′-[(1-{[4-(propan-2-yl)phenyl]carbamoyl}-D-prolyl)amino][1,1′-biphenyl]-4-carboxylic acid]
20 | 11 | Cc1c(C(=O)O)ccc(-c2ccc(NC(=O)[C@H]3CCCN3C(=O)Nc3ccc(C(C)C)cc3)cc2)c1F [Example 87, 2-fluoro-3-methyl-4′-[(1-{[4-(propan-2-yl)phenyl]carbamoyl}-D-prolyl)amino][1,1′-biphenyl]-4-carboxylic acid]
21 | 430 | CC(C)c1ccc(NC(=O)N2CCC[C@@H]2C(=O)Nc2ccc(-c3ccc(F)c(C(=O)O)c3F)cc2)cc1 [Example 88, 2,4-difluoro-4′-[(1-{[4-(propan-2-yl)phenyl]carbamoyl}-D-prolyl)amino][1,1′-biphenyl]-3-carboxylic acid]
22 | 18 | COc1cc(-c2ccc(NC(=O)[C@H]3CCCN3C(=O)Nc3ccc(C(C)C)cc3)cc2)c(F)cc1C(=O)O [Example 89, 2-fluoro-5-methoxy-4′-[(1-{[4-(propan-2-yl)phenyl]carbamoyl}-D-prolyl)amino][1,1′-biphenyl]-4-carboxylic acid]
23 | 190 | Cc1ccc(C(=O)O)cc1-c1ccc(NC(=O)[C@H]2CCCN2C(=O)Nc2ccc(C(C)C)cc2)cc1 [Example 94, 6-methyl-4′-[(1-{[4-(propan-2-yl)phenyl]carbamoyl}-D-prolyl)amino][1,1′-biphenyl]-3-carboxylic acid]
24 | 30 | CC(C)c1ccc(NC(=O)N2CCC[C@@H]2C(=O)Nc2ccc(-c3cc(Cl)c(C(=O)O)cc3F)cc2)cc1 [Example 98, 5-chloro-2-fluoro-4′-[(1-{[4-(propan-2-yl)phenyl]carbamoyl}-D-prolyl)amino][1,1′-biphenyl]-4-carboxylic acid]
